From patent publication US20260223848A1, “METHOD OF INCREASING SUGAR PRODUCTION FROM SUGARCANE” (CORTEVA AGRISCIENCE LLC, priority 2021, published 2026) come the findings set out here.

Each structure is given as a SMILES string.

Format in all cases: in vivo
Assay [1] relates to sugarcane. As to the kind of experiment: Sugarcane ripening field studies, florpyrauxifen-benzyl and haloxyfop-P-methyl. Conditions: for ripening performance: versus the standards trinexapac and sulfometuron.
Assay [2] concerns sugarcane. As to the kind of experiment: Sugarcane ripening field studies, halauxifen-methyl plus haloxyfop-P-methyl. Conditions: six field studies, 30 days after application, rate g ai/ha: halauxifen-methyl 2.16, mixture 27 + 2.16, haloxyfop-P-methyl 27, sulfometuron 15, trinexapac 250; for Gain Fiber: untreated 0.5; for Gain POL: untreated 2.7; for Gain Purity: untreated 6.8; for Gain TRS: untreated 23.4.

The next assay relates to ratoon sugarcane. As to the kind of experiment: Ratoon sugarcane control field studies. Conditions: 2160 g ai/ha, post application, 4 to 6 leaves, 50 to 60 cm. On the procedure:
In order to study the activity of Haloxyfop-P-methyl as possible herbicide for ratoon sugarcane control, field studies were carried out. Haloxyfop-P-methyl was tested at 124; 248; 373; 620 and 1240 g ai/ha plus mineral oil at 0.5% v/v and compared to key standard, as glyphosate (Glizmax Prime®) at 2160 g ae/ha. Trials were sprayed postemergence with 4 to 6 leaves or 50 to 60 cm of ratoon sugarcane regrowth and assessed percentage of control at 14; 30; 45 and 60 days after application (DAA).

Where [3] appears, read: 30 days after application, rate g ai/ha: haloxyfop-P-methyl 27, florpyrauxifen-benzyl 2.2, mixture 27 + 2.2, sulfometuron 15, trinexapac 250, untreated 0.6.
The mark [4] stands for this setting: 30 days after application, rate g ai/ha: haloxyfop-P-methyl 27, florpyrauxifen-benzyl 2.2, mixture 27 + 2.2, sulfometuron 15, trinexapac 250, untreated 2.8.
[5] abbreviates: 30 days after application, rate g ai/ha: haloxyfop-P-methyl 27, florpyrauxifen-benzyl 2.2, mixture 27 + 2.2, sulfometuron 15, trinexapac 250, untreated 7.2.
[6] abbreviates: 30 days after application, rate g ai/ha: haloxyfop-P-methyl 27, florpyrauxifen-benzyl 2.2, mixture 27 + 2.2, sulfometuron 15, trinexapac 250, untreated 25.2.
Where [7] appears, read: 45 days after application, rate g ai/ha: haloxyfop-P-methyl 27, florpyrauxifen-benzyl 2.2, mixture 27 + 2.2, sulfometuron 15, trinexapac 250, untreated 1.2.
[8] abbreviates: 45 days after application, rate g ai/ha: haloxyfop-P-methyl 27, florpyrauxifen-benzyl 2.2, mixture 27 + 2.2, sulfometuron 15, trinexapac 250, untreated 4.2.
Where [9] appears, read: 45 days after application, rate g ai/ha: haloxyfop-P-methyl 27, florpyrauxifen-benzyl 2.2, mixture 27 + 2.2, sulfometuron 15, trinexapac 250, untreated 7.7.
Where [10] appears, read: 45 days after application, rate g ai/ha: haloxyfop-P-methyl 27, florpyrauxifen-benzyl 2.2, mixture 27 + 2.2, sulfometuron 15, trinexapac 250, untreated 38.4.
The mark [11] stands for this setting: single application 50 L/ha 60 days before harvest, 30 DAA, rate g ai/ha: florpyrauxifen-benzyl 2.2, sulfometuron 15, trinexapac 250, untreated 2.8.
Where [12] appears, read: single application 50 L/ha 60 days before harvest, 30 DAA, rate g ai/ha: florpyrauxifen-benzyl 2.2, sulfometuron 15, trinexapac 250, untreated 7.2.
The mark [13] stands for this setting: single application 50 L/ha 60 days before harvest, 30 DAA, rate g ai/ha: florpyrauxifen-benzyl 2.2, sulfometuron 15, trinexapac 250, untreated 25.2.
Setting [14] is: single application 50 L/ha 60 days before harvest, 45 DAA, rate g ai/ha: florpyrauxifen-benzyl 2.2, sulfometuron 15, trinexapac 250, untreated 4.2.
Where [15] appears, read: single application 50 L/ha 60 days before harvest, 45 DAA, rate g ai/ha: florpyrauxifen-benzyl 2.2, sulfometuron 15, trinexapac 250, untreated 7.7.
The mark [16] stands for this setting: single application 50 L/ha 60 days before harvest, 45 DAA, rate g ai/ha: florpyrauxifen-benzyl 2.2, sulfometuron 15, trinexapac 250, untreated 38.4.

Regarding `COc1c(Cl)ccc(-c2nc(C(=O)OCc3ccccc3)c(Cl)c(N)c2F)c1F` [Florpyrauxifen-benzyl, florpyrauxifen-benzyl], the “Gain Fiber” value worked out at 0.5% in the assay with sugarcane [1] (setting [3]) and 1.5% in the assay with sugarcane [1] (setting [7]). For the same compound, the “Gain POL” value with sugarcane [1] (setting [4]) was determined as 2.6%; in the assay with sugarcane [1] (setting [8]), 4.9%; with sugarcane [1] (setting [11]), 2.6%; in the assay with sugarcane [1] (setting [14]), 4.9%. Besides, the “Gain Purity” value in the assay on sugarcane [1] (setting [5]) was found to be 7.5%; with sugarcane [1] (setting [9]) it was 10.3%; in the assay on sugarcane [1] (setting [12]), 7.5%; with sugarcane [1] (setting [15]), 10.3%. For the same compound, the “Gain TRS” value is 23.0 kg/ton in the assay with sugarcane [1] (setting [6]), 44.0 kg/ton in the assay on sugarcane [1] (setting [10]), 23.0 kg/ton in the assay with sugarcane [1] (setting [13]) and 44.0 kg/ton in the assay on sugarcane [1] (setting [16]). For the same compound, the ripening performance result with sugarcane [1] (at 30 DAA) was “comparable to the standards trinexapac and sulfometuron”; with sugarcane [1] (at 45 DAA), “unexpectedly superior to the standards”.
Consider `CCOC(=O)C1CC(=O)C(=C(O)C2CC2)C(=O)C1` (stereo not drawn) [Trinexapac, trinexapac-ethyl], for which the entries for the “Gain Fiber” value in the assay on sugarcane [1] (setting [3]), with sugarcane [1] (setting [7]) and in the assay with sugarcane [2] were 0.4%, 0.8% and 0.4%, respectively. In addition, the “Gain POL” value in the assay on sugarcane [1] (setting [4]) is on record as 2.9%; in the assay with sugarcane [1] (setting [8]) it was 3.8%; with sugarcane [1] (setting [11]) it was 2.9%; in the assay with sugarcane [1] (setting [14]) it was 3.8%; in the assay on sugarcane [2], 2.5%. The “Gain Purity” value turned out to be 6.8% in the assay with sugarcane [1] (setting [5]); 5.8% in the assay on sugarcane [1] (setting [9]); 6.8% with sugarcane [1] (setting [12]); 5.8% in the assay with sugarcane [1] (setting [15]); 5.8% with sugarcane [2]. Moreover, the “Gain TRS” value in the assay on sugarcane [1] (setting [6]) was 25.8 kg/ton; in the assay with sugarcane [1] (setting [10]), 34.9 kg/ton; in the assay on sugarcane [1] (setting [13]), 25.0 kg/ton; with sugarcane [1] (setting [16]) it was 34.9 kg/ton; with sugarcane [2] it was 21.8 kg/ton.
Regarding `COC(=O)c1ccccc1S(=O)(=O)NC(=O)Nc1nc(C)cc(C)n1` [Sulfometuron, sulfometuron-methyl], the entries for the “Gain Fiber” value with sugarcane [1] (setting [3]), in the assay with sugarcane [1] (setting [7]) and in the assay on sugarcane [2] were 0.6%, 0.6% and 0.1%, respectively. Besides, the “Gain POL” value in the assay with sugarcane [1] (setting [4]) is given as 2.4%; with sugarcane [1] (setting [8]) it was 3.6%; with sugarcane [1] (setting [11]) it was 2.4%; in the assay on sugarcane [1] (setting [14]), 3.6%; in the assay on sugarcane [2], 1.9%. Besides, the “Gain Purity” value is recorded as 6.5% in the assay with sugarcane [1] (setting [5]); 10.9% in the assay on sugarcane [1] (setting [9]); 6.5% with sugarcane [1] (setting [12]); 10.9% with sugarcane [1] (setting [15]); 1.9% in the assay with sugarcane [2]. Besides, the “Gain TRS” value with sugarcane [1] (setting [6]) was 21.3 kg/ton; in the assay with sugarcane [1] (setting [10]), 31.4 kg/ton; in the assay on sugarcane [1] (setting [13]), 21.3 kg/ton; in the assay on sugarcane [1] (setting [16]), 31.4 kg/ton; in the assay with sugarcane [2] it was 15.9 kg/ton.
Take `COC(=O)c1nc(-c2ccc(Cl)c(OC)c2F)cc(N)c1Cl` [Halauxifen-methyl, halauxifen-methyl]: in the assay on sugarcane [2], the “Gain Fiber” value is 0.5%, the “Gain POL” value stood at 3%, the “Gain Purity” value worked out at 7.1% and the “Gain TRS” value worked out at 25.4 kg/ton.
Turning to `O=C(O)CNCP(=O)(O)O` [Glyphosate, glyphosate], the “% Control” value in the assay with ratoon sugarcane (14 DAA) is 84.5%; with ratoon sugarcane (30 DAA), 89.3%; in the assay with ratoon sugarcane (45 DAA) it was 95.7%; with ratoon sugarcane (60 DAA) it was 96.0%.
